Patent US9462810B2, “Method for inactivating viruses with slightly acidic arginine” (AJINOMOTO CO., INC., priority 2007, dated 2016)
Like-named read-outs stand apart in the source and are kept apart here.

What was measured:
[1] = system: BVDV; settings: 16 mM, 30° C., 10 hours, pH 4.5; cited from earlier work
[2] = system: herpes simplex viruses type 1, strain F (HSV-1); experiment: HSV-1 inactivation by buffer solutions on ice for one hour, residual titer by plaque assay on Vero cells; format: cell-based
[3] = system: Influenza A viruses/Aichi; format: cell-based, Influenza A virus
[4] = system: Sendai viruses; experiment: Sendai virus inactivation by buffer solutions on ice for one hour, residual titer by plaque assay on Vero cells; format: cell-based; settings: 0.7M, pH 4.0, on ice one hour
[5] = system: influenza virus A/Aichi (H3N2); format: cell-based; settings: 0.15M, two minutes
[6] = Concentration 0.07 M, pH 4.0 (Example 4)
[7] = Concentration 0.14 M, pH 4.0 (Example 4)
[8] = Concentration 0.21 M, pH 4.0 (Example 4)
[9] = Concentration 0.28 M, pH 4.0 (Example 4)

| Compound | Virus Inactivating Efficiency (LRV) ([2]; 0.35M, pH 4.0 (Example 3)) | Virus Inactivating Efficiency (LRV) [2, 6] | Virus Inactivating Efficiency (LRV) [2, 7] | Virus Inactivating Efficiency (LRV) [2, 8] | Virus Inactivating Efficiency (LRV) [2, 9] | Virus Inactivating Efficiency (LRV) ([5]; pH 4.0, 21.6° C.) | Virus Inactivating Efficiency (LRV) ([5]; pH 4.2, 21.6° C.) | other results |
| --- | --- | --- | --- | --- | --- | --- | --- | --- |
| CCCCCCCC(=O)O [caprylic acid] | – | – | – | – | – | – | – | titer of BVDV decreased to [1]: 1/10000 |
| CCCC(=O)N[C@@H](CCCNC(=N)N)C(=O)O [Nα-butyroyl-L-arginine] | >5.5 | 0.7 | 2.2 | 4.3 | 6.0 | 4.05 | – | Virus Inactivating Efficiency (LRV) ([3]; 0.7M, pH 4.0, on ice one hour): 3.7; Virus Inactivating Efficiency (LRV) [4]: >3.7 |
| O=C([O-])CC(O)(CC(=O)[O-])C(=O)[O-].[Na+].[Na+].[Na+] [sodium citrate, reference compound] | – | – | – | – | – | 2.66 | 2.95 | Virus Inactivating Efficiency (LRV) ([2]; 0.1M, pH 3.5, on ice one hour (Example 1)): >5.7; Virus Inactivating Efficiency (LRV) ([2]; 0.1M, pH 3.5, on ice one hour (Example 1), listed as citrate buffer solution): > 5.7; Virus Inactivating Efficiency (LRV) ([2]; 0.1M, pH 4.0, on ice one hour (Example 1)): 1.5; Virus Inactivating Efficiency (LRV) ([2]; 0.1M, pH 4.3, on ice one hour (Example 1)): 0.1; Virus Inactivating Efficiency (LRV) ([2]; 0.1M, pH 4.3, on ice one hour (Example 1), listed as citrate buffer solution): the inactivation did not take place; Virus Inactivating Efficiency (LRV) ([3]; 0.1M, pH 3.5, on ice one hour): 2.1; Virus Inactivating Efficiency (LRV) ([3]; 0.1M, pH 4.0, on ice one hour): 1.5; Virus Inactivating Efficiency (LRV) ([3]; 0.1M, pH 4.3, on ice one hour): 1.3; Virus Inactivating Efficiency (LRV) ([5]; pH 3.8, 21.6° C.): 2.74; maximum LRV ([5]; within the pH range of 3.8 to 4.2, 21.6° C.): ≤ 2.95 |
| Cl.N=C(N)NCCC[C@H](N)C(=O)O [arginine hydrochloride] | 4.2 | 0.5 | 1.1 | 2.2 | 3.1 | 3.87 | – | Virus Inactivating Efficiency (LRV) ([2]; Concentration 0.35 M, pH 4.0 (Example 4)): 4.5; Virus Inactivating Efficiency (LRV) ([3]; 0.7M, 20 mM sodium acetate, pH 4.0, on ice one hour): 3.7; Virus Inactivating Efficiency (LRV) ([3]; 1M, pH 4.3, on ice one hour): 2.4 |
| O=C1CC[C@@H](C(=O)O)N1 [PCA, pyrrolidone carboxylic acid] | – | – | – | – | – | 4.05 | 2.95 | – |
